In patent US9695191B2, “Conformationally constrained, fully synthetic macrocyclic compounds” (POLYPHOR AG, priority 2009, dated 2017):

Legend:
[1] = Metabolic stability, human microsomes; type: in vitro ADME; conditions: 37° C.; for Metabolic Stability 60 min hum: % of the initial 0 minutes value at 60 min, 10 μM; for Metabolic Stability T ½ [min] hum: 10 μM compound, 1 mg/ml microsomal protein, sampling up to 60 min
Protocol: (§1) Microsomes from a human 50 donor mixed gender pool and 1:1 mixtures of microsomes from CD-1 mouse single-gender pools are purchased from Celsis (Belgium). The enzymatic reaction is performed in a buffer containing an NADPH regeneration system and microsomes with the following end concentrations: 100 mM potassium phosphate buffer (all from Sigma), 1 mg/mL glucose-6-phosphate, 1 mg/mL β-nicotinamide adenine dinucleotide phosphate (NADP), 0.65 mg/mL magnesium chloride, 0.8 units/mL of glucose-6-phosphate dehydrogenase (prediluted with 5 mM citrate buffer), 10 μM compound and 1 mg/ml microsomal protein. Compounds are incubated at 37° C. in duplicates and samples are taken after 0, 20 and 60 minutes. After acetonitrile precipitation (2 volumes) and HPLC/MS/MS analysis metabolic turnover is expressed in % of the initial 0 minutes value and half life T½ (min) is calculated. Verapamil for human and propranolol for mouse are used as reference and are assayed with every experimental set. • F. P. Guengerich, Analysis and Characterization of Enzymes; in: Principles and Methods of Toxicology; A. W. Hayes (Ed.) Raven Press: New York, 1989, 777-813. • R. Singh et al., In vitro metabolism of a potent HIV-protease inhibitor (141W94) using rat, monkey and human liver S9, Rapid Commun. Mass Spectrom. 1996, 10, 1019-1026. 5. Results

[2] = Metabolic stability, CD-1 mouse microsomes; type: in vitro ADME; conditions: 37° C.; for Metabolic Stability 60 min mouse: % of the initial 0 minutes value at 60 min, 10 μM; for Metabolic Stability T ½ [min] mouse: 10 μM compound, 1 mg/ml microsomal protein, sampling up to 60 min
Protocol: as §1

[3] = human, 10 μM
Protocol: (§2) Example compounds were dissolved in DMSO/H2O 90:10 to a final concentration of 10 mM for plasma stability determination and metabolic stability determination.
(§3) Human plasma (3-5 donors, Blutspendedienst SRK, Basel) and CD-1 mouse plasma (mixed gender pool>50 animals, Innovative Research, CA, USA) are both sodium citrate stabilized. The assay is performed in triplicates at 10 μM compound concentration and 37° C. Samples are taken at 0, 15, 60, and 240 minutes and stopped by precipitation with 2 volumes of acetonitrile. The supernatant is collected, evaporated and reconstituted in a 5% acetonitrile solution to be analyzed by HPLC/MS/MS. The resulting peak area counts are expressed in percent of the 0 value and used to determine the endpoint stability in % and the half life T½ in minutes. In order to monitor assay integrity the degradation of propantheline is assayed with every experimental set

[4] = both, CD-1, mouse, 10 μM
Protocol: as §2, §3

SMILES | Metabolic Stability 60 min hum [1] [%] | Metabolic Stability 60 min mouse [2] [%] | Plasma Stability 240 min hum [3] [%] | Plasma Stability 240 min mouse [4] [%] | Metabolic Stability T ½ [min] hum [1] [min] | Metabolic Stability T ½ [min] mouse [2] [min]
CN(C)CCNC(=O)[C@@H]1CCC(=O)N(C)CC(=O)N2C[C@@H](NC(=O)Cc3c[nH]c4ccccc34)C[C@H]2COc2ccc(F)cc2C(=O)N1C [Ex. 11, (2S,11S,19aS)-N-[2-(dimethylamino)ethyl]-15-fluoro-2-{[2-(1H-indol-3-yl)acetyl]amino}-7,12-dimethyl-5,8,13-trioxo-2,3,6,7,8,9,10,11,12,13,19,19a-dodecahydro-1H,5H-pyrrolo [2,1-c][1,4,7,12]benzoxatriazacyclopentadecine-11-carboxamide] | 74 | 77 | 100 | 100 |  | 
CC(=O)N[C@H]1C[C@H]2COc3ccc(F)cc3C(=O)N(C)[C@H](C(=O)N3CCCC3)CCC(=O)N(C)CC(=O)N2C1 [Ex. 37, N-[(2S,11S,19aS)-15-fluoro-7,12-dimethyl-5,8,13-trioxo-11-(1-pyrrolidinylcarbonyl)-2,3,6,7,8,9,10,11,12,13,19,19a-dodecahydro-1H,5H-pyrrolo[2,1-c][1,4,7,12]benzoxatriazacyclopentadecin-2-yl]acetamide] | 100 | 100 | 77 | 100 | 60 | 60
CCN(CC)[C@H]1C[C@H]2COc3ccc(F)cc3C(=O)N(C)[C@H](C(=O)N3CCCC3)CCC(=O)N(C)CC(=O)N2C1 [Ex. 43, (2S,11S,19aS)-2-(diethylamino)-15-fluoro-7,12-dimethyl-11-(1-pyrrolidinylcarbonyl)-2,3,6,7,9,10,11,12,19,19a-decahydro-1H,5H-pyrrolo[2,1-c][1,4,7,12] benzoxatriazacyclopentadecine-5,8,13-trione] | 100 | 98 | 82 | 89 |  | 
CCCCC(=O)N[C@@H]1C[C@H]2COc3ccc(F)cc3C(=O)N(C)[C@H](C(=O)N(C)CCN(C)C)CCC(=O)N(C)CC(=O)N2C1 [Ex. 78, (2R,11S,19aS)-N-[2-(dimethylamino)ethyl]-15-fluoro-N,7,12-trimethyl-5,8,13-trioxo-2-(pentanoylamino)-2,3,6,7,8,9,10,11,12,13,19,19a-dodecahydro-1H,5H-pyrrolo[2,1-c][1,4,7,12]benzoxatriazacyclopentadecine-11-carboxamide] | 78 | 100 | 65 | 100 |  | 
CN1CC(=O)N2C[C@@H](NC(=O)CN3CCCC3)C[C@H]2COc2ccc(F)cc2C(=O)N(C)[C@@H](C(=O)N2CCCC2)CCC1=O [Ex. 98, N-[(2S,11R,19aS)-15-fluoro-7,12-dimethyl-5,8,13-trioxo-11-(1-pyrrolidinylcarbonyl)-2,3,6,7,8,9,10,11,12,13,19,19a-dodecahydro-1H,5H-pyrrolo[2,1-c][1,4,7,12]benzoxatriazacyclopentadecin-2-yl]-2-(1-pyrrolidinyl)acetamide] | 97 | 100 | 100 | 78 |  | 
CN(C)CCNC(=O)[C@H]1CCC(=O)N(C)CC(=O)N2CCN(C(=O)Cc3ccc4ccccc4c3)C[C@@H]2COc2ccc(F)cc2C(=O)N1C [Ex. 138, (12R,20aR)-N-[2-(dimethylamino)ethyl]-16-fluoro-8,13-dimethyl-2-[2-(2-naphthyl)acetyl]-6,9,14-trioxo-1,2,3,4,7,8,9,10,11,12,13,14,20,20a-tetradecahydro-6H-pyrazino[2,1-c][1,4,7,12] benzoxatriazacyclopentadecine-12-carboxamide] | 62 | 99 | 89 | 78 |  | 
CN1CCC[C@H](NC(=O)OCc2ccccc2)C(=O)N2C[C@@H](NC(=O)Cc3ccc4ccccc4c3)C[C@H]2COc2cccc(c2)C1=O [Ex. 184, benzyl N-[(4S,6S,10S)-14-methyl-6-{[2-(2-naphthyl)acetyl]amino}-9,15-dioxo-2-oxa-8,14-diazatricyclo[14.3.1.0^4,8]icosa-1(20),16,18-trien-10-yl]carbamate] | 0 | 0 | 66 | 58 |  | 
CCCCCCCCCC(=O)N[C@H]1CN(C)C(=O)c2cccc(c2)OC[C@@H]2C[C@H](NC(=O)Cc3c[nH]c4ccccc34)CN2C(=O)CN(C)C1=O [Ex. 213, N-[(4S,6S,13S)-6-{[2-(1H-indol-3-yl)acetyl]amino)-11,15-dimethyl-9,12,16-trioxo-2-oxa-8,11,15-triazatricyclo[15.3.1.0^4,8]henicosa-1(21),17,19-trien-13-yl]decanamide] | 0 | 4 |  |  |  | 
CN1CC(=O)N2C[C@H](NC(=O)Cc3ccc4ccccc4c3)C[C@H]2COc2ccc(cc2)C(=O)N(C)[C@H](C(=O)N2CCCC2)CCC1=O [Ex. 264, N-[(4S,6R,15S)-11,16-dimethyl-9,12,17-trioxo-15-(1-pyrrolidinylcarbonyl)-2-oxa-8,11,16-triazatricyclo[16.2.2.0^4,8]docosa-1(20),18,21-trien-6-yl]-2-(2-naphthyl)acetamide] |  | 32 | 94 | 88 |  | 

Now from value to molecule:

Metabolic Stability 60 min hum [1] [%] | Metabolic Stability 60 min mouse [2] [%] | Plasma Stability 240 min hum [3] [%] | Plasma Stability 240 min mouse [4] [%] | Metabolic Stability T ½ [min] hum [1] [min] | Metabolic Stability T ½ [min] mouse [2] [min] | SMILES
10 | 83 | 83 | 96 |  |  | CN(C)CCNC(=O)[C@@H]1CCC(=O)N(C)CC(=O)N2C[C@@H](NC(=O)Cc3cccc4ccccc34)C[C@H]2COc2ccc(F)cc2C(=O)N1C [Ex. 49, (2S,11S,19aS)-N-[2-(dimethylamino)ethyl]-15-fluoro-7,12-dimethyl-2-{[2-(1-naphthyl)acetyl]amino}-5,8,13-trioxo-2,3,6,7,8,9,10,11,12,13,19,19a-dodecahydro-1H,5H-pyrrolo[2,1-c][1,4,7,12]benzoxatriazacyclopentadecine-11-carboxamide]
91 | 95 | 96 | 88 |  |  | CN1CC(=O)N2C[C@@H](N)C[C@H]2COc2ccc(F)cc2C(=O)N(C)[C@@H](C(=O)NCc2ccc3ccccc3c2)CCC1=O [Ex. 91, (2S,11R,19aS)-2-amino-15-fluoro-7,12-dimethyl-N-(2-naphthylmethyl)-5,8,13-trioxo-2,3,6,7,8,9,10,11,12,13,19,19a-dodecahydro-1H,5H-pyrrolo[2,1-c][1,4,7,12] benzoxatriazacyclopentadecine-11-carboxamide]
1 | 15 | 100 | 100 |  |  | CNC(=O)[C@H]1CCC(=O)N(C)CC(=O)N2C[C@@H](NC(=O)Cc3ccc4ccccc4c3)C[C@H]2COc2ccc(F)cc2C(=O)N1C [Ex. 93, (2S,11R,19aS)-15-fluoro-N,7,12-trimethyl-2-{[2-(2-naphthyl)acetyl]amino}-5,8,13-trioxo-2,3,6,7,8,9,10,11,12,13,19,19a-dodecahydro-1H,5H-pyrrolo[2,1-c][1,4,7,12] benzoxatriazacyclopentadecine-11-carboxamide]
76 | 94 | 100 | 93 | 60 | 60 | CN1CC(=O)N2C[C@@H](NC(=O)CCC(=O)O)C[C@H]2COc2ccc(F)cc2C(=O)N(C)[C@@H](C(=O)NCc2ccc3ccccc3c2)CCC1=O [Ex. 95, 4-[((2S,11R,19aS)-15-fluoro-7,12-dimethyl-11-{[(2-naphthylmethyl)amino]carbonyl}-5,8,13-trioxo-2,3,6,7,8,9,10,11,12,13,19,19a-dodecahydro-1H,5H-pyrrolo [2,1-c][1,4,7,12]benzoxatriazacyclopentadecin-2-yl)amino]-4-oxobutanoic acid]
4 | 39 | 65 | 75 |  |  | CCCCCCCCCC(=O)N[C@H]1C[C@H]2COc3ccc(F)cc3C(=O)N(C)[C@H](C(=O)NCc3ccc4ccccc4c3)CCC(=O)N(C)CC(=O)N2C1 [Ex. 102, (2S,11S,19aS)-2-(decanoylamino)-15-fluoro-7,12-dimethyl-N-(2-naphthylmethyl)-5,8,13-trioxo-2,3,6,7,8,9,10,11,12,13,19,19a-dodecahydro-1H,5H-pyrrolo[2,1-c][1,4,7,12] benzoxatriazacyclopentadecine-11-carboxamide]
